The values that follow come from ChEMBL document CHEMBL1201862, “PubChem BioAssay data set” (2004).

Test systems include 786-0; HT-29; SF-268; RPMI-8226; OVCAR-8; UACC-257; SNB-75; NCI-H23; HOP-92; SK-MEL-2; SNB-19; NCI-H522; MDA-N; OVCAR-5; EKVX; MDA-MB-435; SF-295; MCF7; SN12C; HCT-116.
Test in all cases: inhibition of tumour cell growth, NCI panel, 48 h

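Where inhibition never reached the appropriate level, the endpoint shown equals the highest concentration tested. Otherwise, values were interpolated linearly from a five-concentration, 48-hour dose response in 96-well plates. GI50 marks 50% less growth.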 The source made the active and inactive calls. No stated cut-off is given here; in the data, active = GI50 up to about 1.1 µM and inactive = higher.

Take `Cc1ccc(/N=C2/SC(c3ccc(C)cc3)(c3ccc(C)cc3)c3ccccc32)cc1`: the GI50 with 786-0, in the experiment on HT-29, in the experiment on SF-268, with RPMI-8226, in the experiment with OVCAR-8 and in the experiment with UACC-257 was > 100 µM (inactive) each time. In addition, the GI50 in the experiment with SNB-75, in the experiment on NCI-H23, in the experiment on HOP-92, in the experiment with SK-MEL-2, with SNB-19 and in the experiment on NCI-H522 was > 100 µM (inactive) in each case. For the same molecule, the GI50 in the experiment with MDA-N, in the experiment on OVCAR-5, in the experiment with EKVX, in the experiment on MDA-MB-435, in the experiment on SF-295 and with MCF7 was > 100 µM (inactive) each time. Moreover, the GI50 with SN12C and in the experiment on HCT-116 was > 100 µM (inactive) each time.
As to `COc1ccc2nc(N/N=C/C(C)=N/Nc3cc(C)c4cc(OC)ccc4n3)cc(C)c2c1`, the GI50 is 14 µM (inactive) with 786-0; 12.7 µM (inactive) in the experiment on HT-29; 25.6 µM (inactive) in the experiment on SF-268; 7.33 µM (inactive) in the experiment with RPMI-8226; 19.1 µM (inactive) in the experiment on OVCAR-8; 58.5 µM (inactive) in the experiment on UACC-257. In addition, the GI50 is 21.9 µM (inactive) in the experiment with SNB-75; 23.1 µM (inactive) in the experiment with NCI-H23; 36.2 µM (inactive) with HOP-92; > 68.1 µM (inactive) with SK-MEL-2; 23.1 µM (inactive) in the experiment with SNB-19; 20.3 µM (inactive) in the experiment on NCI-H522. Further, the GI50 was 23.7 µM (inactive) in the experiment with MDA-N; 27.4 µM (inactive) in the experiment with OVCAR-5; 19.2 µM (inactive) in the experiment with EKVX; 29 µM (inactive) in the experiment on MDA-MB-435; 25.1 µM (inactive) with SF-295; 14.3 µM (inactive) in the experiment with MCF7. For the same molecule, the GI50 in the experiment on SN12C was 23.9 µM (inactive); in the experiment with HCT-116, 14.2 µM (inactive).
For the molecule `CCOC(=O)NC(N(C)C(C(C)C)P(=O)(OCC)OCC)(C(F)(F)F)C(F)(F)F` (stereo not given), the GI50 in the experiment on 786-0, in the experiment on HT-29, in the experiment on SF-268, in the experiment with RPMI-8226, with OVCAR-8 and in the experiment on UACC-257 was > 100 µM (inactive) throughout. Further, the GI50 in the experiment on SNB-75, in the experiment on NCI-H23, in the experiment with HOP-92, in the experiment on SK-MEL-2, in the experiment on SNB-19 and with NCI-H522 was > 100 µM (inactive) throughout. The GI50 with MDA-N, with OVCAR-5, in the experiment with EKVX, with MDA-MB-435, with SF-295 and with MCF7 was > 100 µM (inactive) throughout. Also, the GI50 in the experiment with SN12C and in the experiment with HCT-116 was > 100 µM (inactive) throughout.
For `O=C1CC(Cl)c2c1csc2Br` (stereo not given), the GI50 in the experiment with 786-0 was 7.91 µM (inactive); in the experiment with HT-29, 21.7 µM (inactive); in the experiment with SF-268, 16.8 µM (inactive); with RPMI-8226 it was 1.03 µM (active); in the experiment with OVCAR-8, 16.3 µM (inactive); in the experiment on UACC-257, 16.3 µM (inactive). For the same molecule, the GI50 is 19.8 µM (inactive) in the experiment with SNB-75; 15.3 µM (inactive) with NCI-H23; 21.5 µM (inactive) in the experiment on HOP-92; 15.1 µM (inactive) with SK-MEL-2; 17.5 µM (inactive) in the experiment on SNB-19; 3.26 µM (inactive) with NCI-H522. In addition, the GI50 in the experiment on MDA-N was 19.3 µM (inactive); in the experiment on OVCAR-5 it was 18.2 µM (inactive); in the experiment with EKVX, 20.3 µM (inactive); in the experiment with MDA-MB-435, 15.1 µM (inactive); with SF-295, 23.7 µM (inactive); in the experiment on MCF7 it was 6.25 µM (inactive). The GI50 in the experiment with SN12C was 17.6 µM (inactive); with HCT-116, 15.9 µM (inactive).
Take `O=C1C(Cl)=C(N(C(=O)c2ccccc2)C(=O)c2ccccc2)C(=O)c2ccccc21`: the GI50 was 14.5 µM (inactive) in the experiment on 786-0; 24.7 µM (inactive) with HT-29; 2.48 µM (inactive) in the experiment on SF-268; 2.05 µM (inactive) with RPMI-8226; 54 µM (inactive) in the experiment with OVCAR-8; 14.9 µM (inactive) with UACC-257. The GI50 in the experiment with SNB-75 is 3.68 µM (inactive); in the experiment on NCI-H23, 5.42 µM (inactive); with HOP-92 it was 13.1 µM (inactive); with SK-MEL-2, 11.4 µM (inactive); in the experiment with SNB-19 it was 26.6 µM (inactive); in the experiment with NCI-H522 it was 5.7 µM (inactive). Moreover, the GI50 with MDA-N was 13.1 µM (inactive); in the experiment on OVCAR-5, 12.2 µM (inactive); in the experiment with EKVX it was 5.74 µM (inactive); with MDA-MB-435 it was 12.6 µM (inactive); in the experiment on SF-295, 28.2 µM (inactive); with MCF7, 10.1 µM (inactive). Moreover, the GI50 in the experiment with SN12C was 18.3 µM (inactive); in the experiment on HCT-116 it was 4.12 µM (inactive).
Take `Cc1ccc2nc(CC(=O)c3ccc4ccccc4c3)c(O)nc2c1`: the GI50 was > 100 µM (inactive) in the experiment with 786-0; 66.2 µM (inactive) in the experiment on HT-29; > 100 µM (inactive) in the experiment on SF-268; > 100 µM (inactive) in the experiment with RPMI-8226; > 100 µM (inactive) with OVCAR-8; > 100 µM (inactive) in the experiment with UACC-257. For the same molecule, the GI50 in the experiment with SNB-75, with NCI-H23, with HOP-92, in the experiment with SK-MEL-2, with SNB-19 and in the experiment on NCI-H522 was > 100 µM (inactive) each time. Moreover, the GI50 with MDA-N, in the experiment with OVCAR-5, in the experiment with EKVX, in the experiment on MDA-MB-435, with SF-295 and with MCF7 was > 100 µM (inactive) in each case. The GI50 in the experiment with SN12C and in the experiment with HCT-116 was > 100 µM (inactive) in each case.
For `Cc1cccc(/N=N/C(=N\NC(=O)c2cc(Cl)ccc2O)c2ccc(N(CCC#N)CCC#N)cc2C)c1`, the GI50 in the experiment with 786-0 was 38.5 µM (inactive); in the experiment with HT-29 it was 28.3 µM (inactive); in the experiment with SF-268, 30.1 µM (inactive); with RPMI-8226, 14.9 µM (inactive); in the experiment on OVCAR-8, 31.3 µM (inactive); in the experiment on UACC-257, 30.7 µM (inactive). The GI50 is 37.9 µM (inactive) in the experiment with SNB-75; 32.7 µM (inactive) in the experiment on NCI-H23; 23.8 µM (inactive) with HOP-92; 29 µM (inactive) in the experiment with SK-MEL-2; 35.1 µM (inactive) with SNB-19; 20.8 µM (inactive) with NCI-H522. For the same molecule, the GI50 with MDA-N is 55.6 µM (inactive); in the experiment with OVCAR-5, 64.9 µM (inactive); in the experiment on EKVX it was 34.7 µM (inactive); in the experiment on MDA-MB-435, 47.1 µM (inactive); in the experiment with SF-295 it was 40.3 µM (inactive); in the experiment with MCF7 it was 32.2 µM (inactive). Moreover, the GI50 with SN12C is 24 µM (inactive); in the experiment on HCT-116 it was 33 µM (inactive).
